Measurements: patent US20060110456A1, “Method for biocidal and/or biostatic treatment and compositions therefor” (NATIONAL UNIVERSITY OF SINGAPORE, priority 2004, published 2006)
“Also recorded” adds a separate entry of the source. Where a name gives a salt, the structure may show the parent alone.

Tested on: hard fouling (barnacles, serpulids, spirorbids)
Test: Field testing of coated rods
Format: in vivo
Parameters: Total hard fouling, difference in mean cover (%), drug vs control / Barnacles, difference in mean cover (%), drug vs control: tested at 25 µg/ml of coating; Serpulids, difference in mean cover (%), drug vs control: tested at 25 µg/ml of coating mix
Conditions: for Performance against barnacles / Performance against serpulid polychaetes / Effect of addition of drug on antifouling performance of VC50 coating (total hard fouling) / Performance against spirorbid polychaetes: in words; for Overall performance in field assay: crude rank, best (1) to worst (8); for Barnacles, difference in mean cover (%), drug vs VC50 / Serpulids, difference in mean cover (%), drug vs VC50 / Spirorbids, difference in mean cover (%), drug vs VC50 / Total hard fouling, difference in mean cover (%), drug vs VC50: drug + VC50 rods vs VC50 control; for Barnacles, difference in mean cover (%), drug vs control / Serpulids, difference in mean cover (%), drug vs control / Spirorbids, difference in mean cover (%), drug vs control / Total hard fouling, difference in mean cover (%), drug vs control: drug + VC50 rods vs uncoated blank control; for Barnacles Mean cover (%) / Serpulids Mean cover (%) / Spirorbids Mean cover (%) / Total hard fouling Mean cover (%): rods coated with drug + VC50, field test; for Total hard fouling Mean cover (%): percentage cover within 6 mm×50 mm transect
Procedure: Fouling on rods occurs more rapidly than on flat panels, enabling rapid assessment of the performance of coatings.
6 mm diameter glass rods were cut to 150 mm length and prepared prior to coating by baking in a furnace at 150° C. for 24 hours and then cooling in a dessicator.
All pharmaceuticals were obtained in commercially available form. All tablets were reduced to fine powder with a mortar and pestle, and capsules were opened to extract the contents. The amount of drug powder required to attain the desired concentrations for all tests was calculated from product dosage information and then measured by weight on a high-resolution electronic balance. This was added to the coating and mixed thoroughly prior to application to obtain the concentration of 25 ug active ingredient per ml of coating mix.
The commercial antifouling product used to benchmark field experiments was VC Offshore with Teflon® manufactured by International Coatings.
For our experiments, a reduced copper coating (“VC50”) was prepared by mixing approximately 20 g of #YBA779 into 100 ml of #YBA707. The prepared coating was then allowed to stand so that bubbles from the mixing process dissipated. 15 ml centrifuge tubes were filled with 10 mls of prepared coating. Prepared glass rods were then immersed in the coating to a height of 100 mm and then suspended on a frame to air dry until coating cured.
Five replicate rods were tested for every experimental treatment, including controls. Two sets of controls were used, an uncoated blank control and a VC50 control without pharmaceutical additives. Rod were randomly arrayed on plastic vexar mesh attached to PVC frames and suspended at a depth of 10 cm from the water surface. […] Rods were examined visually weekly for the duration of testing, which typically lasts between 6 to 10 weeks. All fouling was scored as percentage cover of each category within a 6 mm×50 mm transect on each rod.

[1] = drug at 25 ug per ml of VC50 coating
[2] = drug at 25 ug per ml of VC50 coating, hydrochloride
[3] = coated rods, 25 ug active ingredient per ml of VC50 coating

Compound | Performance against barnacles (coated rods) | Performance against serpulid polychaetes (coated rods) | Overall performance in field assay | Barnacles, difference in mean cover (%), drug vs VC50 | Serpulids, difference in mean cover (%), drug vs VC50 | Spirorbids, difference in mean cover (%), drug vs VC50 | Total hard fouling, difference in mean cover (%), drug vs VC50 | Barnacles, difference in mean cover (%), drug vs control | Serpulids, difference in mean cover (%), drug vs control | Spirorbids, difference in mean cover (%), drug vs control | Total hard fouling, difference in mean cover (%), drug vs control | Reduction of total hard fouling cover compared to VC50 alone [1] | Effect of addition of drug on antifouling performance of VC50 coating (total hard fouling) [2] | Barnacles Mean cover (%) | Serpulids Mean cover (%) | Spirorbids Mean cover (%) | Total hard fouling Mean cover (%) | Total hard fouling, mean cover [3] | Performance against spirorbid polychaetes (coated rods) | Effect of addition of drug on antifouling performance of VC50 coating (total hard fouling) [1] | further results
CN1CCN(C(c2ccccc2)c2ccccc2)CC1 [CYZ, Cyclizine hydrochloride] | significantly lower than both blank and VC50 controls | significantly enhanced the performance of VC50 against serpulid polychaetes | 5 | −13% | −1.67% | −5% | −19.7% | −77.34% | −6.67% | +6% | −78.0% | 47.2% | marginally increased the performance of VC50 coating; also recorded: significantly improved the performance of VC50 coating | 10.33% | 0% | 11.67% | 22.0% |  |  |  | 
CCCCCCCCCC(=O)OC1(c2ccc(Cl)cc2)CCN(CCCC(=O)c2ccc(F)cc2)CC1 [HDL, haloperidol decanoate] | did not significantly reduce barnacle cover compared to VC50 controls | completely excluded | 4 | −6.7% | −1.67% | −16.66% | −25% | −69.7% | −3.33% | +5% | −68% |  |  | 23.3% | 0% | 6.67% | 30% | 30% | exclude spirorbid settlement; also recorded: significantly improve the performance of VC50 against spirorbid polychaetes | significantly less on VC50+HDL treated rods; also recorded: significantly improved the performance of VC50 coating | 
CN(C)C(=O)C(CCN1CCC(O)(c2ccc(Cl)cc2)CC1)(c1ccccc1)c1ccccc1 [IMD, Loperamide hydrochloride] | significantly less than on both controls |  | 1 |  |  |  |  |  |  |  |  | 54.3% | significantly increased the fouling resistance of the base coating; also recorded: significantly improved the performance of VC50 coating |  |  |  |  | 0.67% |  |  | Reduction of total hard fouling cover compared to blank controls (coated rods): 97.3%; Barnacles, mean cover [3]: 0.67%; Serpulids, mean cover [3]: 0%; Spirorbids, mean cover [3]: 0%; Performance against spirorbid polychaetes (coated rods, hydrochloride): exclude spirorbid settlement; also recorded: no settlement by spirorbids; Barnacles, difference in mean cover vs VC50 (vs VC50 control): −29.3%; Serpulids, difference in mean cover vs VC50 (vs VC50 control): −1.67%; Spirorbids, difference in mean cover vs VC50 (vs VC50 control): −23.33%; Total hard fouling, difference in mean cover vs VC50 (vs VC50 control): −54.3%; Barnacles, difference in mean cover vs control (vs uncoated blank control): −92.3%; Serpulids, difference in mean cover vs control (vs uncoated blank control): −3.33%; Spirorbids, difference in mean cover vs control (vs uncoated blank control): −1.67%; Total hard fouling, difference in mean cover vs control (vs uncoated blank control): −97.3%
Cc1nccn1CC1CCc2c(c3ccccc3n2C)C1=O (centres unmarked) [ZFN, ondansetron hydrochloride] |  |  | 2 | −26.33% | 0% | −18.66% | −45% | -89.3% | −1.66% | +3% | −88% |  | increased the antifouling properties of VC50 coating significantly; also recorded: significantly improved the performance of VC50 coating | 3.67% | 1.67% | 4.67% | 10% | 10% | exclude spirorbid settlement |  | Less spirorbid cover than VC50 [1]: 18.7%; Reduction in barnacle cover compared to VC50 [1]: 26.3%
CN[C@H]1CC[C@@H](c2ccc(Cl)c(Cl)c2)c2ccccc21.Cl [ZLT, sertraline hydrochloride] |  | higher cover of serpulid and spirorbid polychaetes compared to VC50 alone | 8 | −11.67% | +1.66% | +6.67% | −3.33% | −74.67% | 0% | +28.33% | −46.33% | 3.3% |  | 18.33% | 3.33% | 30% | 51.67% |  | higher cover of serpulid and spirorbid polychaetes compared to VC50 alone | did not significantly improve the antifouling performance of VC50 | 
Cc1cc2c(s1)Nc1ccccc1N=C2N1CCN(C)CC1 [ZPX, olanzapine] | only significant for barnacles |  | 3 | −23.3% | −1.67% | −12.66% | −37.7% | −86.3% | −3.33% | +9% | −80.7% |  |  | 6.67% | 0% | 10.67% | 17.3% | 17.3% |  | significantly improved performance against total hard fouling; also recorded: significantly improved the performance of VC50 coating | 
